Reference: BindingDB's records for doi:10.1021/jm00163a034 (Eisai, 1990)
Square brackets hold non-standard residues; d marks the D form. Peptide text beside a SMILES is read from it. Phe(4-NO2) = N[CH](Cc1ccc([N+](=O)[O-])cc1)C(=O)O; NMeY = CN[CH](Cc1ccc(O)cc1)C(=O)O; Sar = CNCC(=O)O

Experiments:
[1] = Evaluated for inhibitory activity against Opioid receptor kappa 1 of rabbit vas deferens (RVD)
[2] = Binding affinities against Opioid receptor kappa 1 of guinea pig brain membrane using [3H]U69,593 as the radioligand using competition binding assays.
[3] = Binding affinities against Opioid receptor delta 1 of guinea pig brain membrane using [3H]DPDPE as the radioligand using competition binding assays.

In the case of `CN[C@@H](Cc1ccc(O)cc1)C(=O)NCC(=O)NNC(=O)N[C@@H](Cc1ccccc1)C(=O)N[C@@H](CC(C)C)C(=O)N[C@@H](CCCNC(=N)N)C(=O)N[C@@H](CCCNC(=N)N)C(=O)N[C@H](CC(C)C)C(N)=O`, the IC50 [1] is reported as 152 nM.
For `CC[C@H](C)[C@H](NC(=O)[C@H](CCCNC(=N)N)NC(=O)[C@H](CCCNC(=N)N)NC(=O)[C@H](CC(C)C)NC(=O)[C@H](Cc1ccccc1)NC(=O)CNC(=O)CNC(=O)[C@@H](N)Cc1ccc(O)cc1)C(N)=O` [2-[2-(2-{2-[2-(2-{2-[2-Amino-3-(4-hydroxy-phenyl)-propionylamino]-acetylamino}-acetylamino)-3-phenyl-propionylamino]-4-methyl-pentanoylamino}-5-guanidino-pentanoylamino)-5-guanidino-pentanoylamino]-3-methyl-pentanoic acid amide], the Ki [2] was 1.2 nM, the Ki [3] was 24 nM and the IC50 [1] was 17 nM.
For `CCNC(=O)[C@@H](CC(C)C)NC(=O)[C@H](CCCNC(=N)N)N(C)C(=O)[C@H](CCCNC(=N)N)NC(=O)[C@H](CC(C)C)NC(=O)[C@H](Cc1ccccc1)NC(=O)CNC(=O)CNC(=O)[C@H](Cc1ccc(O)cc1)NC` [2-[2-(2-{2-[3-(4-Hydroxy-phenyl)-2-methylamino-propionylamino]-acetylamino}-acetylamino)-3-phenyl-propionylamino]-4-methyl-pentanoic acid (1-{[1-(1-ethylcarbamoyl-3-methyl-butylcarbamoyl)-4-guanidino-butyl]-methyl-carbamoyl}-4-guanidino-butyl)-amide], the Ki [2] was 1.9 nM, the Ki [3] was 27 nM and the IC50 [1] was 2.6 nM.
`CNC(Cc1ccc(O)cc1)C(=O)NCC(=O)NCC(=O)NC(Cc1ccc([N+](=O)[O-])cc1)C(=O)NC(CC(C)C)C(=O)NC(CCCNC(=N)N)C(=O)NC(CCCNC(=N)N)C(=O)NC(CC(C)C)C(N)=O` (centres undefined) [2-[5-Guanidino-2-(5-guanidino-2-{2-[2-(2-{2-[3-(4-hydroxy-phenyl)-2-methylamino-propionylamino]-acetylamino}-acetylamino)-3-(4-nitro-phenyl)-propionylamino]-4-methyl-pentanoylamino}-pentanoylamino)-pentanoylamino]-4-methyl-pentanoic acid amide] (H-[NMeY]GG[Phe(4-NO2)]LRRL-NH2; configuration not given here) gave a Ki [2] of 0.77 nM and a Ki [3] of 29 nM.
Work on `CN[C@@H](Cc1ccc(O)cc1)C(=O)NCC(=O)NCC(=O)N[C@@H](Cc1ccccc1)C(=O)N[C@H](C)C(=O)N[C@@H](CCCNC(=N)N)C(=O)N[C@@H](CCCNC(=N)N)C(=O)N[C@H](CC(C)C)C(N)=O` [2-[5-Guanidino-2-(5-guanidino-2-{2-[2-(2-{2-[3-(4-hydroxy-phenyl)-2-methylamino-propionylamino]-acetylamino}-acetylamino)-3-phenyl-propionylamino]-propionylamino}-pentanoylamino)-pentanoylamino]-4-methyl-pentanoic acid amide] yielded an IC50 [1] of 13000 nM.
`CC(C)C[C@H](NC(=O)[C@H](CCCNC(=N)N)NC(=O)[C@H](CCCNC(=N)N)NC(=O)[C@H](CC(C)C)NC(=O)[C@H](Cc1ccccc1)NC(=O)CNC(=O)CN(C)C(=O)[C@@H](N)Cc1ccc(O)cc1)C(N)=O` [2-{2-[2-(2-{2-[2-(2-{[2-Amino-3-(4-hydroxy-phenyl)-propionyl]-methyl-amino}-acetylamino)-acetylamino]-3-phenyl-propionylamino}-4-methyl-pentanoylamino)-5-guanidino-pentanoylamino]-5-guanidino-pentanoylamino}-4-methyl-pentanoic acid amide] (H-Y[Sar]GFLRRL-NH2) gave an IC50 [1] of 738 nM.
With `CN[C@@H](Cc1ccc(O)cc1)C(=O)NCC(=O)NCC(=O)N[C@@H](Cc1ccccc1)C(=O)N(C)[C@@H](CC(C)C)C(=O)N[C@@H](CCCNC(=N)N)C(=O)N[C@@H](CCCNC(=N)N)C(=O)N[C@H](CC(C)C)C(N)=O` [2-{5-Guanidino-2-[5-guanidino-2-(2-{[2-(2-{2-[3-(4-hydroxy-phenyl)-2-methylamino-propionylamino]-acetylamino}-acetylamino)-3-phenyl-propionyl]-methyl-amino}-4-methyl-pentanoylamino)-pentanoylamino]-pentanoylamino}-4-methyl-pentanoic acid amide] the IC50 [1] was 189 nM.
In the case of `CN[C@@H](Cc1ccc(O)cc1)C(=O)NCC(=O)NCC(=O)N[C@@H](Cc1ccccc1)C(=O)N[C@@H](CC(C)C)C(=O)N(C)[C@@H](CCCN=C(N)N)C(=O)N[C@@H](CCCN=C(N)N)C(=O)N[C@H](CC(C)C)C(N)=O` [2-{5-Guanidino-2-[5-guanidino-2-({2-[2-(2-{2-[3-(4-hydroxy-phenyl)-2-methylamino-propionylamino]-acetylamino}-acetylamino)-3-phenyl-propionylamino]-4-methyl-pentanoyl}-methyl-amino)-pentanoylamino]-pentanoylamino}-4-methyl-pentanoic acid amide], the IC50 [1] is reported as 1.1 nM.
Work on `CCNC(=O)[C@@H](CC(C)C)NC(=O)[C@H](CCCN=C(N)N)N(C)C(=O)[C@H](CCCN=C(N)N)NC(=O)[C@H](CC(C)C)NC(=O)[C@H](Cc1ccc([N+](=O)[O-])cc1)NC(=O)CNC(=O)CNC(=O)[C@H](Cc1ccc(O)cc1)NC` [2-{5-Guanidino-2-[(5-guanidino-2-{2-[2-(2-{2-[3-(4-hydroxy-phenyl)-2-methylamino-propionylamino]-acetylamino}-acetylamino)-3-(4-nitro-phenyl)-propionylamino]-4-methyl-pentanoylamino}-pentanoyl)-methyl-amino]-pentanoylamino}-4-methyl-pentanoic acidN-ethyl amide] yielded a Ki [2] of 3.9 nM and a Ki [3] of 18 nM.
`CN[C@@H](Cc1ccc(O)cc1)C(=O)NCC(=O)NCC(=O)N[C@@H](Cc1ccccc1)C(=O)N[C@@H](CC(C)C)C(=O)N[C@@H](CCCNC(=N)N)C(=O)N(C)[C@@H](CCCNC(=N)N)C(=O)N[C@H](CC(C)C)C(N)=O` [2-{5-Guanidino-2-[(5-guanidino-2-{2-[2-(2-{2-[3-(4-hydroxy-phenyl)-2-methylamino-propionylamino]-acetylamino}-acetylamino)-3-phenyl-propionylamino]-4-methyl-pentanoylamino}-pentanoyl)-methyl-amino]-pentanoylamino}-4-methyl-pentanoic acid amide] gave a Ki [2] of 1.4 nM and a Ki [3] of 54 nM.
Compound `CCNC(=O)[C@@H](CC(C)C)NC(=O)[C@H](CCCN=C(N)N)N(C)C(=O)[C@H](CCCN=C(N)N)NC(=O)[C@@H]1CSSC[C@@H](NC(=O)[C@@H](N)Cc2ccc(O)cc2)C(=O)NCC(=O)N[C@@H](Cc2ccccc2)C(=O)N1` [13-[2-Amino-3-(4-hydroxy-phenyl)-propionylamino]-7-benzyl-6,9,12-trioxo-1,2-dithia-5,8,11-triaza-cyclotetradecane-4-carboxylic acid (1-{[1-(1-ethylcarbamoyl-3-methyl-butylcarbamoyl)-4-guanidino-butyl]-methyl-carbamoyl}-4-guanidino-butyl)-amide] has a Ki [2] of 3 nM and a Ki [3] of 1.6 nM.
